# Reference: patent US11504371B2, “Quinazolines compound, preparation method therefor and application thereof” (Beijing Normal University, priority 2017, dated 2022)
# Key:
# Type in all cases: cell-based
# [1] = system: human lung cancer cell line (A549); assay: MTT assay, tumor cell proliferation inhibition, A549; settings: for IC50: A549, MTT, 72 h, read-out: Tumor inhibition rate (IC50); for inhibitory activity on A549 (in words): MTT, summary of Table 1
# Procedure: (§1) Cell lines to be tested: human hepatoma cell line (HepG2), human lung cancer cell line (A549), human prostate cancer cell line (DU145), human breast cancer cell line (MCF-7), human neuroblastoma cell line (SH-SY5Y), human gastric mucosal cell line (Ges-1) and human embryonic lung fibroblast cell line (CCC-HPF-1) (the cells to be tested were purchased from the Cancer Hospital of Chinese Academy of Medical Sciences).
# (§2) The cells in logarithmic growth phase were treated to prepare a single cell suspension, with the cell density adjusted, which was seeded in a 96-well cell culture plate. About 2×10^3 cells were contained in 100 μL per well, and cultured in a cell incubator at 37° C., 5% CO2, and saturated humidity for 24 h. The used medium was aspirated and abandoned, and then 100 μL of the target compound in different concentrations (0.1 μM-100 μM) were added for drug treatment. Five duplicate wells were prepared for each concentration. The background blank well, negative control well and positive control well were also prepared. All the wells were placed in a cell culture incubator at 37° C., 5% CO2, saturated humidity for another 72 h. Then, each well was added with 10 μL of MTT solution (5 mg/mL) and incubated for another 4 h. After that, each well was added with 100 μL of 10% SDS-0.1% NH4Cl (10% SDS purchased from Beijing Mengyimei Biotechnology Co., Ltd.) solution, and incubated at 37° C. for 10 h in the dark. Then, the absorbance OD was measured at 570 nm using a microplate reader at a reference wavelength of 650 nm. Cell proliferation inhibition was calculated according to the following formula: % inhibition=(ODcontrol−ODtreat)(ODcontrol−ODblank)×100. […] Each group was performed at least three times in parallel.
# [2] = system: human hepatoma cell line (HepG2); assay: MTT assay, tumor cell proliferation inhibition, HepG2; settings: 72 h, read-out: Tumor inhibition rate (IC50)
# Procedure: as §1, §2
# [3] = system: human prostate cancer cell line (DU145); assay: MTT assay, tumor cell proliferation inhibition, DU145; settings: DU145, MTT, 72 h; read-out: Tumor inhibition rate (IC50)
# Procedure: as §1, §2
# [4] = system: human breast cancer cell line (MCF-7); assay: MTT assay, tumor cell proliferation inhibition, MCF-7; settings: for IC50: MCF-7, MTT, 72 h, read-out: Tumor inhibition rate (IC50)
# Procedure: as §1, §2
# [5] = system: human neuroblastoma cell line (SH-SY5Y); assay: MTT assay, tumor cell proliferation inhibition, SH-SY5Y; settings: for IC50: SH-SY5Y, 72 h, read-out: Tumor inhibition rate (IC50)
# Procedure: as §1, §2
structure (smiles),measurement,setting,value
"Fc1ccc(COc2ccccc2Nc2ncnc3cc4c(cc23)OCCOCCO4)cc1Cl [Compound 13, N-(2-((3-chloro,4-fluorophenyl)methoxy)phenyl)-6,7-(benzo-9-crown-3)-4-quinazolinamine]",IC50,[1],9.43 µM
same,inhibitory activity on A549 (in words),[1],strong specific inhibitory activity
same,IC50,[2],> 100 µM
same,IC50,[3],88.6 µM
same,IC50,[4],> 100 µM
same,IC50,[5],> 100 µM
"Fc1ccc(COc2ccccc2Nc2ncnc3cc4c(cc23)OCCOCCO4)cc1 [Compound 4, N-(2-((p-fluorophenyl)methoxy)phenyl)-6,7-(benzo-9-crown-3)-4-quinazolinamine]",IC50,[1],14.4 µM
same,IC50,[2],> 100 µM
same,IC50,[3],> 100 µM
same,IC50,[4],> 100 µM
same,IC50,[5],84.5 µM
"O=[N+]([O-])c1ccc(COc2ccccc2Nc2ncnc3cc4c(cc23)OCCOCCOCCOCCO4)cc1 [Compound 30, N-(2-((4-nitrophenyl)methoxy)phenyl)-6,7-(benzo-15-crown-5)-4-quinazolinamine]",IC50,[1],> 100 µM
same,IC50,[2],48.1 µM
same,IC50,[3],> 100 µM
same,IC50,[4],> 100 µM
same,IC50,[5],> 100 µM
"Fc1ccc(COc2ccc(Nc3ncnc4cc5c(cc34)OCCOCCO5)cc2)cc1Cl [Compound 15, N-(4-((3-chloro,4-fluorophenyl)methoxy)phenyl)-6,7-(benzo-9-crown-3)-4-quinazolinamine]",IC50,[1],> 100 µM
same,IC50,[2],76.5 µM
same,IC50,[3],> 100 µM
same,IC50,[4],> 100 µM
same,IC50,[5],> 100 µM
"c1ccc(COc2cccc(Nc3ncnc4cc5c(cc34)OCCOCCOCCOCCO5)c2)cc1 [Compound 28, N-(3-((phenyl)methoxy)phenyl)-6,7-(benzo-15-crown-5)-4-quinazolinamine]",IC50,[1],43.9 µM
same,IC50,[2],55.5 µM
same,IC50,[3],> 100 µM
same,IC50,[4],> 100 µM
same,IC50,[5],39.3 µM
"FC(F)(F)c1ccc(COc2ccccc2Nc2ncnc3cc4c(cc23)OCCOCCOCCOCCO4)cc1 [Compound 33, N-(2-((4-trifluoromethylphenyl)methoxy)phenyl)-6,7-(benzo-15-crown-5)-4-quinazolinamine]",IC50,[1],30.7 µM
same,IC50,[2],> 100 µM
same,IC50,[3],> 100 µM
same,IC50,[4],28.5 µM
same,IC50,[5],> 100 µM
"Fc1ccc(COc2ccc(Nc3ncnc4cc5c(cc34)OCCOCCOCCOCCO5)cc2)cc1 [Compound 26, N-(4-((p-fluorophenyl)methoxy)phenyl)-6,7-(benzo-15-crown-5)-4-quinazolinamine]",IC50,[1],43.9 µM
same,IC50,[2],55.5 µM
same,IC50,[3],> 100 µM
same,IC50,[4],> 100 µM
same,IC50,[5],39.3 µM
"Fc1ccc(COc2ccc(Nc3ncnc4cc5c(cc34)OCCOCCOCCO5)cc2)cc1 [Compound 17, N-(4-((p-fluorophenyl)methoxy)phenyl)-6,7-(benzo-12-crown-4)-4-quinazolinamine]",IC50,[1],> 100 µM
same,IC50,[2],> 100 µM
same,IC50,[3],> 100 µM
same,IC50,[4],8.31 µM
same,inhibitory effect on MCF-7 (in words),"[4]; MTT, summary of Table 1",strong specific inhibitory effect
same,IC50,[5],20.7 µM
"O=[N+]([O-])c1ccc(COc2cccc(Nc3ncnc4cc5c(cc34)OCCOCCO5)c2)cc1 [Compound 2, N-(3-((4-nitrophenyl)methoxy)phenyl)-6,7-(benzo-9-crown-3)-4-quinazolinamine]",IC50,[1],15.5 µM
same,IC50,[2],65.3 µM
same,IC50,[3],> 100 µM
same,IC50,[4],42.4 µM
same,IC50,[5],36.6 µM
"N#Cc1ccc(COc2ccc(Nc3ncnc4cc5c(cc34)OCCOCCOCCO5)cc2)cc1 [Compound 11, N-(4-((4-cyanophenyl)methoxy)phenyl)-6,7-(benzo-12-crown-4)-4-quinazolinamine]",IC50,[1],81.3 µM
same,IC50,[2],67.4 µM
same,IC50,[3],> 100 µM
same,IC50,[4],> 100 µM
same,IC50,[5],9.89 µM
same,inhibitory effect on SH-SY5Y (in words),[5]; summary of Table 1,strong specific inhibitory effect
"c1ccc(OCc2ccncc2)c(Nc2ncnc3cc4c(cc23)OCCOCCO4)c1 [Compound 12, N-(2-((4-pyridyl)methoxy)phenyl)-6,7-(benzo-9-crown-3)-4-quinazolinamine]",IC50,[1],> 100 µM
same,IC50,[2],31.3 µM
same,IC50,[3],> 100 µM
same,IC50,[4],> 100 µM
same,IC50,[5],> 100 µM
"Fc1ccc(COc2cccc(Nc3ncnc4cc5c(cc34)OCCOCCO5)c2)cc1 [Compound 5, N-(3-((p-fluorophenyl)methoxy)phenyl)-6,7-(benzo-9-crown-3)-4-quinazolinamine]",IC50,[1],7.84 µM
same,inhibitory activity on A549 (in words),[1],strong specific inhibitory activity
same,IC50,[2],> 100 µM
same,IC50,[3],> 100 µM
same,IC50,[4],78.2 µM
same,IC50,[5],55.3 µM
"O=[N+]([O-])c1ccc(COc2ccccc2Nc2ncnc3cc4c(cc23)OCCOCCOCCO4)cc1 [Compound 18, N-(2-((4-nitrophenyl)methoxy)phenyl)-6,7-(benzo-12-crown-4)-4-quinazolinamine]",IC50,[1],29.9 µM
same,IC50,[2],60.8 µM
same,IC50,[3],> 100 µM
same,IC50,[4],> 100 µM
same,IC50,[5],75.5 µM
"O=[N+]([O-])c1ccc(COc2ccc(Nc3ncnc4cc5c(cc34)OCCOCCOCCO5)cc2)cc1 [Compound 20, N-(4-((4-nitrophenyl)methoxy)phenyl)-6,7-(benzo-12-crown-4)-4-quinazolinamine]",IC50,[1],> 100 µM
same,IC50,[2],19.4 µM
same,IC50,[3],> 100 µM
same,IC50,[4],66.5 µM
same,IC50,[5],58.6 µM
"FC(F)(F)c1ccc(COc2ccccc2Nc2ncnc3cc4c(cc23)OCCOCCOCCO4)cc1 [Compound 22, N-(2-((4-trifluoromethylphenyl)methoxy)phenyl)-6,7-(benzo-12-crown-4)-4-quinazolinamine]",IC50,[1],> 100 µM
same,IC50,[2],> 100 µM
same,IC50,[3],> 100 µM
same,IC50,[4],> 100 µM
same,IC50,[5],> 100 µM
"Fc1ccc(COc2cccc(Nc3ncnc4cc5c(cc34)OCCOCCOCCOCCO5)c2)cc1 [Compound 25, N-(3-((p-fluorophenyl)methoxy)phenyl)-6,7-(benzo-15-crown-5)-4-quinazolinamine]",IC50,[1],> 100 µM
same,IC50,[2],19 µM
same,IC50,[3],> 100 µM
same,IC50,[4],> 100 µM
same,IC50,[5],20 µM
"c1ccc(COc2cccc(Nc3ncnc4cc5c(cc34)OCCOCCOCCO5)c2)cc1 [Compound 21, N-(3-((phenyl)methoxy)phenyl)-6,7-(benzo-12-crown-4)-4-quinazolinamine]",IC50,[1],> 100 µM
same,IC50,[2],> 100 µM
same,IC50,[3],> 100 µM
same,IC50,[4],> 100 µM
same,IC50,[5],22.8 µM
"FC(F)(F)c1ccc(COc2cccc(Nc3ncnc4cc5c(cc34)OCCOCCO5)c2)cc1 [Compound 8, N-(3-((4-trifluoromethylphenyl)methoxy)phenyl)-6,7-(benzo-9-crown-3)-4-quinazolinamine]",IC50,[1],> 100 µM
same,IC50,[2],> 100 µM
same,IC50,[3],> 100 µM
same,IC50,[4],> 100 µM
same,IC50,[5],19.3 µM
"O=[N+]([O-])c1ccc(COc2ccc(Nc3ncnc4cc5c(cc34)OCCOCCOCCOCCO5)cc2)cc1 [Compound 32, N-(4-((4-nitrophenyl)methoxy)phenyl)-6,7-(benzo-15-crown-5)-4-quinazolinamine]",IC50,[1],> 100 µM
same,IC50,[2],> 100 µM
same,IC50,[3],> 100 µM
same,IC50,[4],> 100 µM
same,IC50,[5],> 100 µM
"Fc1ccc(COc2ccc(Nc3ncnc4cc5c(cc34)OCCOCCO5)cc2)cc1 [Compound 6, N-(4-((p-fluorophenyl)methoxy)phenyl)-6,7-(benzo-9-crown-3)-4-quinazolinamine]",IC50,[1],43.3 µM
same,IC50,[2],> 100 µM
same,IC50,[3],> 100 µM
same,IC50,[4],65.2 µM
same,IC50,[5],82.7 µM
